Source: a compilation of properties of binary mixtures (doi:10.1016/j.molliq.2019.111099)

Experiment: xn = mol fraction of the nth substance listed
Conditions: 101 kPa

CCCCc1n(S(=O)(=O)O)cc[n+]1S(=O)(=O)O.O=C([O-])C(F)(F)F + CO
Conditions | electrical conductivity [S/m]
278.15 K, x1 = 0.0255 | 3.18
283.15 K, x1 = 0.0255 | 3.01
288.15 K, x1 = 0.0255 | 2.89
293.15 K, x1 = 0.0255 | 2.72
298.15 K, x1 = 0.0052 | 1.41
298.15 K, x1 = 0.0155 | 1.76
298.15 K, x1 = 0.0255 | 2.65
303.15 K, x1 = 0.0255 | 2.45
313.15 K, x1 = 0.0255 | 2.08
318.15 K, x1 = 0.0255 | 1.91
323.15 K, x1 = 0.0255 | 1.73
328.15 K, x1 = 0.0255 | 1.69
333.15 K, x1 = 0.0255 | 1.57

CCc1n(S(=O)(=O)O)cc[n+]1S(=O)(=O)O.O=C([O-])C(F)(F)F + CO
Conditions | electrical conductivity [S/m]
278.15 K, x1 = 0.0255 | 3.75
288.15 K, x1 = 0.0255 | 3.44
298.15 K, x1 = 0.0104 | 1.64
298.15 K, x1 = 0.0155 | 1.93
298.15 K, x1 = 0.0205 | 2.27
303.15 K, x1 = 0.0255 | 3.03
308.15 K, x1 = 0.0255 | 2.95
318.15 K, x1 = 0.0255 | 2.51
323.15 K, x1 = 0.0255 | 2.36
328.15 K, x1 = 0.0255 | 2.19
333.15 K, x1 = 0.0255 | 1.96

Cc1n(S(=O)(=O)O)cc[n+]1S(=O)(=O)O.O=C([O-])C(F)(F)F + CO
Conditions | electrical conductivity [S/m]
283.15 K, x1 = 0.0255 | 4
288.15 K, x1 = 0.0255 | 3.64
298.15 K, x1 = 0.0052 | 1.38
298.15 K, x1 = 0.0155 | 2
298.15 K, x1 = 0.0205 | 2.41
298.15 K, x1 = 0.0255 | 3.29
298.15 K, x1 = 0.05 | 4.44
298.15 K, x1 = 0.08 | 4.49
298.15 K, x1 = 0.1 | 4.52
298.15 K, x1 = 0.12 | 4.03
298.15 K, x1 = 0.15 | 3.28
298.15 K, x1 = 0.18 | 2.42
298.15 K, x1 = 0.2 | 1.71
303.15 K, x1 = 0.0255 | 3.01
308.15 K, x1 = 0.0255 | 2.98
313.15 K, x1 = 0.0255 | 2.86
318.15 K, x1 = 0.0255 | 2.84
323.15 K, x1 = 0.0255 | 2.73
333.15 K, x1 = 0.0255 | 2.32

O=C([O-])C(F)(F)F.O=S(=O)(O)n1cc[n+](S(=O)(=O)O)c1 + CO
Conditions | electrical conductivity [S/m]
278.15 K, x1 = 0.0255 | 5.19
283.15 K, x1 = 0.0255 | 4.9
293.15 K, x1 = 0.0255 | 4.26
298.15 K, x1 = 0.0104 | 2.23
298.15 K, x1 = 0.0155 | 2.85
298.15 K, x1 = 0.0205 | 3.56
298.15 K, x1 = 0.0255 | 4.13
298.15 K, x1 = 0.05 | 5.45
303.15 K, x1 = 0.0255 | 4.05
318.15 K, x1 = 0.0255 | 3.52
323.15 K, x1 = 0.0255 | 3.46
328.15 K, x1 = 0.0255 | 3.37
